The EC50 is the concentration at which the effect is half-maximal.

For 17 compounds, EC50 results are on record in patent US20130029942A1, “COMPOUNDS AND THERAPEUTICAL USES THEREOF” (Myrexis, Inc., priority 2003, published 2013).

Like-named read-outs stand apart in the source and are kept apart here.

The subject of the test is T-47D cells. The experiment in a line: Caspase cascade activation / induction of apoptosis in T-47D cells (fluorogenic N-(Ac-DEVD)-N'-ethoxycarbonyl-R110 substrate). The format is cell-based, human. The following applies: Homo sapiens, T47D, T-47D.
Where [1] appears, read: 24 hr, read-out: T-47D (24 hr) EC50.
The mark [2] stands for this setting: 48 hr, read-out: T-47D (48 hr) EC50.

As to `CN(c1ccc(Cl)cc1)c1nc(N(C)c2ccc(Cl)cc2)c2ccccc2n1` [Example 19, N^2,N^4-Bis(4-chloro-phenyl)-N^2,N^4-dimethyl-quinazoline-2,4-diamine], the EC50 is, setting by setting: under setting [1], above 10 µM; under setting [2], above 10 µM.
Take `COc1ccc(Nc2nc(Cl)nc3cc(OC)c(OC)cc23)cc1` [Example 21, (2-Chloro-6,7-dimethoxyquinazolin-4-yl)-(4-methoxy-phenyl)-amine]: the EC50 is above 10 µM under setting [1] and above 10 µM under setting [2].
As for `COc1cc2nc(Cl)nc(N(C)c3ccc(C)cc3)c2cc1OC` [Example 22, (2-Chloro-6,7-dimethoxyquinazolin-4-yl)-(4-methyl-phenyl)-methyl-amine], the 50% effective concentration (EC50) is above 10 µM under setting [1] and above 10 µM under setting [2].
Consider `COc1ccc(N(C)c2nc(NCCN3CCOCC3)nc3cc(OC)c(OC)cc23)cc1` [Example 23, 6,7-Dimethoxy-N^4-(4-methoxy-phenyl)-N^4-methyl-N^2-(2-morpholin-4-yl-ethyl)-quinazoline-2,4-diamine], for which the EC50 reads like this: under setting [1], above 10 µM; under setting [2], above 10 µM.
Turning to `COc1ccc(N(C)c2nc(NC/C=C(\C)CCC=C(C)C)nc3cc(OC)c(OC)cc23)cc1` [Example 24, 6,7-Dimethoxy-N^2-(3,7-dimethyl-octa-2,6-dienyl)-N^4-(4-methoxy-phenyl)-N^4-methyl-quinazoline-2,4-diamine], the EC50 by setting is: under setting [1], above 10 µM; under setting [2], 9.46 µM.
For the compound `COc1ccc(CN(C)c2nc(Cl)nc3ccccc23)cc1` [Example 26, (2-Chloro-quinazolin-4-yl)-(4-methoxy-benzyl)-methyl-amine], under setting [2], the EC50 was determined as 0.178 µM.
As to `Clc1nc(Nc2ccncc2)c2ccccc2n1` [Example 27, (2-Chloro-quinazolin-4-yl)-pyridin-4-yl-amine], under setting [2], the concentration for a half-maximal effect (EC50) was above 10 µM.
Take `COc1ccc(Nc2nc(Cl)nc3ccccc23)cn1` [Example 28, (2-Chloro-quinazolin-4-yl)-(6-methoxy-pyridin-3-yl)-amine]: the EC50 reads like this: under setting [1], above 10 µM; under setting [2], above 10 µM.
In the case of `COc1cccc(Nc2nc(Cl)nc3ccccc23)c1OC` [Example 29, (2-Chloro-quinazolin-4-yl)-(2,3-dimethoxy-phenyl)-amine], the EC50 under setting [2] is above 10 µM.
As for `COc1ccc(Nc2nc(Cl)nc3ccccc23)c(OC)c1` [Example 30, (2-Chloro-quinazolin-4-yl)-(2,4-dimethoxy-phenyl)-amine], the EC50 under setting [2] is above 10 µM.
Still for that read-out and setting: then `COc1cccc(Nc2nc(Cl)nc3ccccc23)c1` [Example 32, (2-Chloro-quinazolin-4-yl)-(3-methoxy-phenyl)-amine], with above 10 µM; and `COc1ccccc1Nc1nc(Cl)nc2ccccc12` [Example 33, (2-Chloro-quinazolin-4-yl)-(2-methoxy-phenyl)-amine], with above 10 µM.
For the compound `COc1ccc(N(c2nc(Cl)nc3ccccc23)C(C)C)cc1` [Example 37, (2-Chloro-quinazolin-4-yl)-isopropyl-(4-methoxy-phenyl)-amine], the EC50 under setting [1] is 2.69 µM.
With `COc1ccc(N(c2nc(Cl)nc3ccccc23)C2CCCCC2)cc1` [Example 38, (2-Chloro-quinazolin-4-yl)-cyclohexyl-(4-methoxy-phenyl)-amine], the EC50 under setting [1] turned out to be 2.93 µM.
On the same count and under the same terms, then `COc1cccc(N(C)c2nc(Cl)nc3ccccc23)c1OC` [Example 39, (2-Chloro-quinazolin-4-yl)-(2,3-dimethoxy-phenyl)-methyl-amine], with 0.693 µM.
As to `CCN(c1ccc(OC)cc1)c1nc(Cl)nc2ccccc12` [Example 40, (2-Chloro-quinazolin-4-yl)-ethyl-(4-methoxy-phenyl)-amine], under setting [2], the EC50 was found to be 0.047 µM.
For the compound `COc1ccc(N(c2nc(Cl)nc3ccccc23)C2CCCC2)cc1` [Example 45, (2-Chloro-quinazolin-4-yl)-cyclopentyl-(4-methoxy-phenyl)-amine], the EC50 under setting [2] was above 10 µM.
